Active and inactive are the calls of the source. The rule behind the calls is not given here.
Tested on: CCRIS mutagenicity, Ames/micronucleus/aberration tests
Experiment: CCRIS mutagenicity studies

**Q.** Which results are given for [Si]?
**A.** mutagenic call (Test System: AMES SALMONELLA TYPHIMURIUM, Strain/Indicator: TA98, Metabolic Activation: RAT LIVER S-9, PHENOBARBITAL AND BETA-NAPHTHOFLAVONE, Method: GAS EXPOSURE): active; positive; mutagenic call (Test System: AMES SALMONELLA TYPHIMURIUM, Strain/Indicator: TA98, Metabolic Activation: RAT, LIVER, S-9, PHENOBARBITAL AND 5,6-BENZOFLAVONE, Method: GAS EXPOSURE): active; positive; mutagenic call (Test System: AMES SALMONELLA TYPHIMURIUM, Strain/Indicator: TA100, Metabolic Activation: NONE, Method: GAS EXPOSURE): inactive; negative; mutagenic call (Test System: AMES SALMONELLA TYPHIMURIUM, Strain/Indicator: TA100, Metabolic Activation: RAT LIVER S-9, PHENOBARBITAL AND BETA-NAPHTHOFLAVONE, Method: GAS EXPOSURE): inactive; negative; mutagenic call (Test System: AMES SALMONELLA TYPHIMURIUM, Strain/Indicator: TA100, Metabolic Activation: RAT, LIVER, S-9, PHENOBARBITAL AND 5,6-BENZOFLAVONE, Method: GAS EXPOSURE): inactive; negative; mutagenic call (Test System: AMES SALMONELLA TYPHIMURIUM, Strain/Indicator: TA1535, Metabolic Activation: NONE, Method: GAS EXPOSURE): inactive; negative; mutagenic call (Test System: AMES SALMONELLA TYPHIMURIUM, Strain/Indicator: TA1535, Metabolic Activation: RAT LIVER S-9, PHENOBARBITAL AND BETA-NAPHTHOFLAVONE, Method: GAS EXPOSURE): inactive; negative; mutagenic call (Test System: AMES SALMONELLA TYPHIMURIUM, Strain/Indicator: TA1535, Metabolic Activation: RAT, LIVER, S-9, PHENOBARBITAL AND 5,6-BENZOFLAVONE, Method: GAS EXPOSURE): inactive; negative; mutagenic call (Test System: AMES SALMONELLA TYPHIMURIUM, Strain/Indicator: TA1537, Metabolic Activation: RAT, LIVER, S-9, PHENOBARBITAL AND 5,6-BENZOFLAVONE, Method: GAS EXPOSURE): active; positive; mutagenic call (Test System: E. COLI, Strain/Indicator: WP2 UVRA, Metabolic Activation: NONE, Method: GAS EXPOSURE): inactive; negative; mutagenic call (Test System: E. COLI, Strain/Indicator: WP2 UVRA, Metabolic Activation: RAT, LIVER, S-9, PHENOBARBITAL AND 5,6-BENZOFLAVONE, Method: GAS EXPOSURE): inactive; negative; mutagenic call (Test System: E.COLI, Strain/Indicator: WP2UVRA, Metabolic Activation: NONE, Method: GAS EXPOSURE): inactive; negative; mutagenic call (Test System: E.COLI, Strain/Indicator: WP2UVRA, Metabolic Activation: RAT LIVER S-9, PHENOBARBITAL AND BETA-NAPHTHOFLAVONE, Method: GAS EXPOSURE): inactive; negative

**Q.** What does the source list for Nc1ccc(O)c2c1C(=O)c1c(O)ccc(N)c1C2=O?
**A.** mutagenic call (Test System: AMES SALMONELLA TYPHIMURIUM, Strain/Indicator: TA98, Metabolic Activation: NONE, Method: STANDARD PLATE): active; positive; mutagenic call (Test System: AMES SALMONELLA TYPHIMURIUM, Strain/Indicator: TA98, Metabolic Activation: RAT, LIVER, S-9, AROCLOR 1254, Method: STANDARD PLATE): active; positive; mutagenic call (Test System: AMES SALMONELLA TYPHIMURIUM, Strain/Indicator: TA1535, Metabolic Activation: NONE, Method: STANDARD PLATE): inactive; negative; mutagenic call (Test System: AMES SALMONELLA TYPHIMURIUM, Strain/Indicator: TA1535, Metabolic Activation: RAT, LIVER, S-9, AROCLOR 1254, Method: STANDARD PLATE): inactive; negative; mutagenic call (Test System: AMES SALMONELLA TYPHIMURIUM, Strain/Indicator: TA1537, Metabolic Activation: NONE, Method: STANDARD PLATE): active; positive; mutagenic call (Test System: AMES SALMONELLA TYPHIMURIUM, Strain/Indicator: TA1537, Metabolic Activation: RAT, LIVER, S-9, AROCLOR 1254, Method: STANDARD PLATE): active; positive; mutagenic call (Test System: AMES SALMONELLA TYPHIMURIUM, Strain/Indicator: TA1538, Metabolic Activation: NONE, Method: STANDARD PLATE): active; positive; mutagenic call (Test System: AMES SALMONELLA TYPHIMURIUM, Strain/Indicator: TA1538, Metabolic Activation: RAT, LIVER, S-9, AROCLOR 1254, Method: STANDARD PLATE): active; positive; mutagenic call (Test System: AMES SALMONELLA TYPHIMURIUM, Strain/Indicator: TA1978, Metabolic Activation: NONE, Method: STANDARD PLATE): inactive; negative; mutagenic call (Test System: AMES SALMONELLA TYPHIMURIUM, Strain/Indicator: TA1978, Metabolic Activation: RAT, LIVER, S-9, AROCLOR 1254, Method: STANDARD PLATE): inactive; negative

**Q.** With O=c1oc2ccccc2c(O)c1C1CCCc2ccccc21 (stereo not drawn) as the compound, how does the mutagenic call (Test System: AMES SALMONELLA TYPHIMURIUM, Strain/Indicator: TA97, Metabolic Activation: NONE) read?
**A.** The mutagenic call was “inactive; negative”.

**Q.** And the mutagenic call (Test System: AMES SALMONELLA TYPHIMURIUM, Strain/Indicator: TA97, Metabolic Activation: S-9)?
**A.** The mutagenic call was “inactive; negative”.

**Q.** What about the mutagenic call (Test System: AMES SALMONELLA TYPHIMURIUM, Strain/Indicator: TA98, Metabolic Activation: NONE) of the same compound?
**A.** Its mutagenic call is “inactive; negative”.

**Q.** And the mutagenic call (Test System: AMES SALMONELLA TYPHIMURIUM, Strain/Indicator: TA98, Metabolic Activation: S-9)?
**A.** Its mutagenic call is “inactive; negative”.

**Q.** What about the mutagenic call (Test System: AMES SALMONELLA TYPHIMURIUM, Strain/Indicator: TA100, Metabolic Activation: NONE) of the same compound?
**A.** The mutagenic call was “inactive; negative”.

**Q.** What about the mutagenic call (Test System: AMES SALMONELLA TYPHIMURIUM, Strain/Indicator: TA100, Metabolic Activation: S-9) of the same compound?
**A.** Its mutagenic call is “inactive; negative”.

**Q.** And the mutagenic call (Test System: AMES SALMONELLA TYPHIMURIUM, Strain/Indicator: TA102, Metabolic Activation: NONE)?
**A.** Its mutagenic call is “inactive; negative”.

**Q.** What about the mutagenic call (Test System: AMES SALMONELLA TYPHIMURIUM, Strain/Indicator: TA102, Metabolic Activation: S-9) of the same compound?
**A.** Its mutagenic call is “inactive; negative”.

**Q.** Which results are given for OCC(Cl)(Cl)Cl?
**A.** mutagenic call (Test System: AMES SALMONELLA TYPHIMURIUM, Strain/Indicator: TA100, Metabolic Activation: NONE, Method: BAG VAPORIZATION): inactive; negative; mutagenic call (Test System: AMES SALMONELLA TYPHIMURIUM, Strain/Indicator: TA100, Metabolic Activation: RAT, LIVER, S-9, AROCLOR 1254, Method: BAG VAPORIZATION): inactive; negative
